Data taken from US20240034722A1, “PRETARGETING IMAGING AGENTS” (Eli Lilly and Company, priority 2020, published 2024).
Values joined by “and” are separate entries in the source; they are usually repeats but may differ in a detail not shown here. Equal entries are not always repeated. “Also recorded” adds a separate entry of the source.

Tests used:
[1] = Stability of the tetrazine moiety in ascorbate formulation; format: physicochemical
[2] = Dynamic micro PET-CT imaging, tracer uptake in brain, muscle and bone; format: in vivo, CD-1 mice; conditions: for Bone uptake throughout the scan period (defluorination) / Uptake throughout the periphery of the body (liver, kidneys, heart) / Brain uptake after steady clearance of tracer / Crossing of the blood-brain-barrier / Peak brain uptake / Time of peak brain uptake post injection / Clearance from the brain: CD-1 male mice; for Bone uptake throughout the scan period (defluorination): 60-min scan; for Uptake throughout the periphery of the body (liver, kidneys, heart): PET; for Brain uptake after steady clearance of tracer: at 59.5 min post injection; for Crossing of the blood-brain-barrier / Peak brain uptake / Time of peak brain uptake post injection: dynamic PET; for Peak brain uptake / Time of peak brain uptake post injection: i.v.; for Bone Mean % ID/g / Brain Mean % ID/g / Muscle Mean % ID/g: male CD-1 mice, iv; for Clearance from the brain: by 60 minutes post injection, relative to muscle
Protocol: (§1) A Siemens Inveon® Multimodality Scanner (Siemens, Germany) is used for micro PET-CT imaging. Male CD-1 (6-week-old, ˜30 g) mice are anesthetized with 3% isoflurane/97% oxygen and placed on the bed of the scanner. The mice are administered [^18F]N-(4-(1,2,4,5-tetrazin-3-yl)benzyl)-2-fluoronicotinamide via a bolus intravenous tail vein injection (˜350 ρCi in a total volume of 150 μL saline). A total of four dynamic PET scans are conducted, followed by a short high-resolution CT scan for anatomical registration. PET images are generated for each minute of the acquisition time. Uptake of the tracer in the brain, muscle, and bone are determined by visually drawing regions of interest (ROIs) based on the fused PET/CT images and the corresponding activity values are determined using the Inveon® Research Workplace software. All values are represented as % injected dose per gram (% ID/g).
as §1, with “g) mice were anesthetized with” for “g) mice are anesthetized with”, “are administered [^18F]N-(4-(1,2,4,5-tetrazin-3-yl)benzyl)-6-fluoropicolinamide via a” for “are administered [^18F]N-(4-(1,2,4,5-tetrazin-3-yl)benzyl)-2-fluoronicotinamide via a”, “vein injection (˜300 ρCi in” for “vein injection (˜350 ρCi in”
as §1, with “PET/CT” for “PET-CT”, “30-40” for “˜30”, “[^18F]N-(4-(1,2,4,5-tetrazin-3-yl)benzyl)-6-fluoronicotinamide” for “[^18F]N-(4-(1,2,4,5-tetrazin-3-yl)benzyl)-2-fluoronicotinamide”, “(˜300” for “(˜350”, “two” for “four”

[3] = listed as [^18F]N-(4-(1,2,4,5-tetrazin-3-yl)benzyl)-6-fluoropicolinamide

O=C(NCc1ccc(-c2nncnn2)cc1)c1cccnc1F [Example 1, N-(4-(1,2,4,5-tetrazin-3-yl)benzyl)-2-fluoronicotinamide]
Reduction of the tetrazine moiety by ascorbate formulation [1]: readily reduced

O=C(NCc1ccc(-c2nncnn2)cc1)c1ccc([18F])nc1 [Comparative Example 6, [^18]FN-(4-(1,2,4,5-tetrazin-3-yl)benzyl)-6-fluoronicotinamide]
Bone uptake throughout the scan period (defluorination) [2]: remained low | Uptake throughout the periphery of the body (liver, kidneys, heart) [2]: readily observed | Brain uptake after steady clearance of tracer [2]: 1.1 % ID/g | Crossing of the blood-brain-barrier [2]: crosses the blood-brain-barrier | Peak brain uptake [2]: 2.6 % ID/g | Time of peak brain uptake post injection [2]: 2.5 min | Bone Mean % ID/g ([2]; Time 0.5 min): 0.00 % ID/g | Brain Mean % ID/g ([2]; Time 0.5 min): 0.00 % ID/g | Muscle Mean % ID/g ([2]; Time 0.5 min): 0.00 % ID/g | Bone Mean % ID/g ([2]; Time 1.5 min): 0.09 % ID/g | Brain Mean % ID/g ([2]; Time 1.5 min): 0.52 % ID/g | Muscle Mean % ID/g ([2]; Time 1.5 min): 0.07 % ID/g | Bone Mean % ID/g ([2]; Time 2.5 min): 0.83 % ID/g | Brain Mean % ID/g ([2]; Time 2.5 min): 2.57 % ID/g | Muscle Mean % ID/g ([2]; Time 2.5 min): 0.56 % ID/g | Bone Mean % ID/g ([2]; Time 3.5 min): 0.95 % ID/g | Brain Mean % ID/g ([2]; Time 3.5 min): 2.45 % ID/g | Muscle Mean % ID/g ([2]; Time 3.5 min): 0.67 % ID/g | Bone Mean % ID/g ([2]; Time 4.5 min): 0.85 % ID/g | Brain Mean % ID/g ([2]; Time 4.5 min): 2.29 % ID/g | Muscle Mean % ID/g ([2]; Time 4.5 min): 0.73 % ID/g | Bone Mean % ID/g ([2]; Time 5.5 min): 0.86 % ID/g | Brain Mean % ID/g ([2]; Time 5.5 min): 2.20 % ID/g | Muscle Mean % ID/g ([2]; Time 5.5 min): 0.72 % ID/g | Bone Mean % ID/g ([2]; Time 6.5 min): 0.90 % ID/g | Brain Mean % ID/g ([2]; Time 6.5 min): 2.23 % ID/g | Muscle Mean % ID/g ([2]; Time 6.5 min): 0.80 % ID/g | Bone Mean % ID/g ([2]; Time 7.5 min): 0.90 % ID/g | Brain Mean % ID/g ([2]; Time 7.5 min): 2.15 % ID/g | Muscle Mean % ID/g ([2]; Time 7.5 min): 0.84 % ID/g | Bone Mean % ID/g ([2]; Time 8.5 min): 0.90 % ID/g | Brain Mean % ID/g ([2]; Time 8.5 min): 2.10 % ID/g | Muscle Mean % ID/g ([2]; Time 8.5 min): 0.84 % ID/g | Bone Mean % ID/g ([2]; Time 9.5 min): 0.81 % ID/g | Brain Mean % ID/g ([2]; Time 9.5 min): 2.00 % ID/g | Muscle Mean % ID/g ([2]; Time 9.5 min): 0.78 % ID/g | Bone Mean % ID/g ([2]; Time 10.5 min): 0.90 % ID/g | Brain Mean % ID/g ([2]; Time 10.5 min): 1.95 % ID/g | Muscle Mean % ID/g ([2]; Time 10.5 min): 0.79 % ID/g | Bone Mean % ID/g ([2]; Time 11.5 min): 0.92 % ID/g | Brain Mean % ID/g ([2]; Time 11.5 min): 1.89 % ID/g | Muscle Mean % ID/g ([2]; Time 11.5 min): 0.84 % ID/g | Bone Mean % ID/g ([2]; Time 12.5 min): 0.94 % ID/g | Brain Mean % ID/g ([2]; Time 12.5 min): 1.86 % ID/g | Muscle Mean % ID/g ([2]; Time 12.5 min): 0.84 % ID/g | Bone Mean % ID/g ([2]; Time 13.5 min): 0.97 % ID/g | Brain Mean % ID/g ([2]; Time 13.5 min): 1.83 % ID/g | Muscle Mean % ID/g ([2]; Time 13.5 min): 0.88 % ID/g | Bone Mean % ID/g ([2]; Time 14.5 min): 0.98 % ID/g | Brain Mean % ID/g ([2]; Time 14.5 min): 1.78 % ID/g | Muscle Mean % ID/g ([2]; Time 14.5 min): 0.88 % ID/g | Bone Mean % ID/g ([2]; Time 15.5 min): 0.98 % ID/g | Brain Mean % ID/g ([2]; Time 15.5 min): 1.76 % ID/g | Muscle Mean % ID/g ([2]; Time 15.5 min): 0.89 % ID/g | Bone Mean % ID/g ([2]; Time 16.5 min): 0.83 % ID/g | Brain Mean % ID/g ([2]; Time 16.5 min): 1.72 % ID/g | Muscle Mean % ID/g ([2]; Time 16.5 min): 0.93 % ID/g | Bone Mean % ID/g ([2]; Time 17.5 min): 1.00 % ID/g | Brain Mean % ID/g ([2]; Time 17.5 min): 1.69 % ID/g | Muscle Mean % ID/g ([2]; Time 17.5 min): 0.91 % ID/g | Bone Mean % ID/g ([2]; Time 18.5 min): 0.97 % ID/g | Brain Mean % ID/g ([2]; Time 18.5 min): 1.65 % ID/g | Muscle Mean % ID/g ([2]; Time 18.5 min): 0.89 % ID/g | Bone Mean % ID/g ([2]; Time 19.5 min): 0.93 % ID/g | Brain Mean % ID/g ([2]; Time 19.5 min): 1.63 % ID/g | Muscle Mean % ID/g ([2]; Time 19.5 min): 0.90 % ID/g | Bone Mean % ID/g ([2]; Time 20.5 min): 1.01 % ID/g | Brain Mean % ID/g ([2]; Time 20.5 min): 1.61 % ID/g | Muscle Mean % ID/g ([2]; Time 20.5 min): 0.95 % ID/g | Bone Mean % ID/g ([2]; Time 21.5 min): 0.91 % ID/g | Brain Mean % ID/g ([2]; Time 21.5 min): 1.58 % ID/g | Muscle Mean % ID/g ([2]; Time 21.5 min): 0.98 % ID/g | Bone Mean % ID/g ([2]; Time 22.5 min): 1.02 % ID/g | Brain Mean % ID/g ([2]; Time 22.5 min): 1.56 % ID/g | Muscle Mean % ID/g ([2]; Time 22.5 min): 0.95 % ID/g | Bone Mean % ID/g ([2]; Time 23.5 min): 1.04 % ID/g | Brain Mean % ID/g ([2]; Time 23.5 min): 1.55 % ID/g | Muscle Mean % ID/g ([2]; Time 23.5 min): 1.00 % ID/g | Bone Mean % ID/g ([2]; Time 24.5 min): 1.11 % ID/g | Brain Mean % ID/g ([2]; Time 24.5 min): 1.51 % ID/g | Muscle Mean % ID/g ([2]; Time 24.5 min): 0.98 % ID/g | Bone Mean % ID/g ([2]; Time 25.5 min): 0.93 % ID/g | Brain Mean % ID/g ([2]; Time 25.5 min): 1.49 % ID/g | Muscle Mean % ID/g ([2]; Time 25.5 min): 0.99 % ID/g | Bone Mean % ID/g ([2]; Time 26.5 min): 0.86 % ID/g | Brain Mean % ID/g ([2]; Time 26.5 min): 1.46 % ID/g | Muscle Mean % ID/g ([2]; Time 26.5 min): 0.95 % ID/g | Bone Mean % ID/g ([2]; Time 27.5 min): 0.94 % ID/g | Brain Mean % ID/g ([2]; Time 27.5 min): 1.45 % ID/g | Muscle Mean % ID/g ([2]; Time 27.5 min): 0.94 % ID/g | Bone Mean % ID/g ([2]; Time 28.5 min): 1.00 % ID/g | Brain Mean % ID/g ([2]; Time 28.5 min): 1.42 % ID/g | Muscle Mean % ID/g ([2]; Time 28.5 min): 1.00 % ID/g | Bone Mean % ID/g ([2]; Time 29.5 min): 1.05 % ID/g | Brain Mean % ID/g ([2]; Time 29.5 min): 1.40 % ID/g | Muscle Mean % ID/g ([2]; Time 29.5 min): 0.97 % ID/g | Bone Mean % ID/g ([2]; Time 30.5 min): 0.95 % ID/g | Brain Mean % ID/g ([2]; Time 30.5 min): 1.38 % ID/g | Muscle Mean % ID/g ([2]; Time 30.5 min): 0.99 % ID/g | Bone Mean % ID/g ([2]; Time 31.5 min): 1.04 % ID/g | Brain Mean % ID/g ([2]; Time 31.5 min): 1.38 % ID/g | Muscle Mean % ID/g ([2]; Time 31.5 min): 0.95 % ID/g | Bone Mean % ID/g ([2]; Time 32.5 min): 1.04 % ID/g | Brain Mean % ID/g ([2]; Time 32.5 min): 1.36 % ID/g | Muscle Mean % ID/g ([2]; Time 32.5 min): 0.97 % ID/g

O=C(NCc1ccc(-c2nncnn2)cc1)c1cccc([18F])n1 [Example 4, [^18F]N-(4-(1,2,4,5-tetrazin-3-yl)benzyl)-6-fluoropicolinamide]
Bone uptake throughout the scan period (defluorination) [2]: remained low | Uptake throughout the periphery of the body (liver, kidneys, heart) [2]: observed | Brain uptake after steady clearance of tracer [2]: 1.1 % ID/g | Clearance from the brain [2]: baseline levels defined by uptake in the muscle | Clearance from the brain [2, 3]: near background levels (muscle) | Crossing of the blood-brain-barrier [2]: readily cross the blood-brain-barrier | Peak brain uptake [2]: 4.3±0.3 % ID/g | Time of peak brain uptake post injection [2]: approximately 2 min | Peak brain uptake [2, 3]: 4.3±0.3 % ID/g and 4.3 % ID/g | Time of peak brain uptake post injection [2, 3]: 2.5 min | Crossing of the blood-brain-barrier [2, 3]: readily cross the blood-brain-barrier; also recorded: readily crosses the blood-brain-barrier
